The source made the active and inactive calls. The rule behind the calls is not given here.
What was measured:
[1] = biological target: Ephrin type-B receptor 1 (Homo sapiens) (UniProt P54762); settings: Compound concentration 1000.0 nM
[2] = biological target: RAC-beta serine/threonine-protein kinase (Homo sapiens) (UniProt P31751); settings: Compound concentration 1000.0 nM
[3] = test system: Tyrosine-protein kinase ABL1 (Homo sapiens), P00519 [H396P]; settings: Compound concentration 1000.0 nM
[4] = biological target: Mast/stem cell growth factor receptor Kit (Homo sapiens) (UniProt P10721); settings: Compound concentration 1000.0 nM
Mast/stem cell growth factor receptor Kit (Homo sapiens), sequence (P10721 whole entry, canonical isoform): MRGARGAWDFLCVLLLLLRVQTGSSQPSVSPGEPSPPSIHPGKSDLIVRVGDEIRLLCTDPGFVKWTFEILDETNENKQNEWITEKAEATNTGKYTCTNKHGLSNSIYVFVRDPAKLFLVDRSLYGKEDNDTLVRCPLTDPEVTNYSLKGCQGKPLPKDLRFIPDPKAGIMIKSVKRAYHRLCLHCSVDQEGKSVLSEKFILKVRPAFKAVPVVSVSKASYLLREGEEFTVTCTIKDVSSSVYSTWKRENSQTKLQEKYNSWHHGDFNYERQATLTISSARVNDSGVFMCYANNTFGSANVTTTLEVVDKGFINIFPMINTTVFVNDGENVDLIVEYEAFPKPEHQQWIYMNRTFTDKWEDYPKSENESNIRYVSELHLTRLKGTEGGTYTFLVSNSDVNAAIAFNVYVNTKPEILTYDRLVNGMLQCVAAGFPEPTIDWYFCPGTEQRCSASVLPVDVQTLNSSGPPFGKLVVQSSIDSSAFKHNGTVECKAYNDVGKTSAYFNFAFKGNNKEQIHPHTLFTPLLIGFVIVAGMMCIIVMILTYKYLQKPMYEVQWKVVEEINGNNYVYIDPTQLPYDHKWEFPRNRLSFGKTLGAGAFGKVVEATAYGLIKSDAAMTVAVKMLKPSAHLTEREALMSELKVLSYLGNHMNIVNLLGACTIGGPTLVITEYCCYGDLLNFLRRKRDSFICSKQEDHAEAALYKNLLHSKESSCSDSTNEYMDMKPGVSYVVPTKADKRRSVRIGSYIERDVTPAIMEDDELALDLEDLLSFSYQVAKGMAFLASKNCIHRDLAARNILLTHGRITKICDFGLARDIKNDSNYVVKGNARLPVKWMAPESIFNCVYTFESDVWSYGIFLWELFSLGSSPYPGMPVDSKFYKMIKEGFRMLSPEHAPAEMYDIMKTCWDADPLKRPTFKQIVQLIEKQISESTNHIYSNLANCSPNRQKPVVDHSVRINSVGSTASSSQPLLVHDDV

[5] = test system: Phosphatidylinositol 4,5-bisphosphate 3-kinase catalytic subunit alpha isoform (Homo sapiens), P42336 [C420R]; settings: Compound concentration 1000.0 nM
[6] = biological target: Tyrosine-protein kinase ABL2 (Homo sapiens) (UniProt P42684); settings: Compound concentration 1000.0 nM
[7] = biological target: Dual specificity tyrosine-phosphorylation-regulated kinase 1B (Homo sapiens) (UniProt Q9Y463); settings: Compound concentration 1000.0 nM
[8] = biological target: Death-associated protein kinase 1 (Homo sapiens) (UniProt P53355); settings: Compound concentration 1000.0 nM
[9] = biological target: Tyrosine-protein kinase BTK (Homo sapiens) (UniProt Q06187); settings: Compound concentration 1000.0 nM
[10] = test system: Tyrosine-protein kinase ABL1 (Homo sapiens), P00519 [T315I]; settings: Compound concentration 1000.0 nM
[11] = test system: Tyrosine-protein kinase ABL1 (Homo sapiens), P00519 [H396P]; settings: Compound concentration 1000.0 nM; remark: listed apart in the source
[12] = biological target: STE20-like serine/threonine-protein kinase (Homo sapiens) (UniProt Q9H2G2); settings: Compound concentration 1000.0 nM
[13] = biological target: Muscarinic acetylcholine receptor M5 (Homo sapiens) (UniProt P08912); settings: Compound concentration 10.0 uM
[14] = biological target: Casein kinase I isoform gamma-1 (Homo sapiens) (UniProt Q9HCP0); settings: Compound concentration 1000.0 nM
[15] = biological target: T1, Alpha-2A adrenergic receptor (Homo sapiens) (UniProt P08913); settings: Compound concentration 10.0 uM
T1 sequence (whole entry): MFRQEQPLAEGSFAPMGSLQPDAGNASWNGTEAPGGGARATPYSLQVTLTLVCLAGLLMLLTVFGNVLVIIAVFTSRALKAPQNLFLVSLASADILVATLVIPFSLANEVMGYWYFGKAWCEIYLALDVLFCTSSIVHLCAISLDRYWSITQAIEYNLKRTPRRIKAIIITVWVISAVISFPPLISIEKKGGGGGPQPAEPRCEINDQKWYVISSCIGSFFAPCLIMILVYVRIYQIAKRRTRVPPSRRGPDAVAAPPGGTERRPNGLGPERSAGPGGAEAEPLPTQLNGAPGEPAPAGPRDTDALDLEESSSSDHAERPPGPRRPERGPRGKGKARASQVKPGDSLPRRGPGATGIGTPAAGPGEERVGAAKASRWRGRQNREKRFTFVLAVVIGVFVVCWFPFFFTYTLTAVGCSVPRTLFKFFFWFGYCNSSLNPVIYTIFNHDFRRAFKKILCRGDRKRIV

[16] = biological target: Serine/threonine-protein kinase MRCK gamma (Homo sapiens) (UniProt Q6DT37); settings: Compound concentration 1000.0 nM
Serine/threonine-protein kinase MRCK gamma (Homo sapiens), sequence (Q6DT37 whole entry): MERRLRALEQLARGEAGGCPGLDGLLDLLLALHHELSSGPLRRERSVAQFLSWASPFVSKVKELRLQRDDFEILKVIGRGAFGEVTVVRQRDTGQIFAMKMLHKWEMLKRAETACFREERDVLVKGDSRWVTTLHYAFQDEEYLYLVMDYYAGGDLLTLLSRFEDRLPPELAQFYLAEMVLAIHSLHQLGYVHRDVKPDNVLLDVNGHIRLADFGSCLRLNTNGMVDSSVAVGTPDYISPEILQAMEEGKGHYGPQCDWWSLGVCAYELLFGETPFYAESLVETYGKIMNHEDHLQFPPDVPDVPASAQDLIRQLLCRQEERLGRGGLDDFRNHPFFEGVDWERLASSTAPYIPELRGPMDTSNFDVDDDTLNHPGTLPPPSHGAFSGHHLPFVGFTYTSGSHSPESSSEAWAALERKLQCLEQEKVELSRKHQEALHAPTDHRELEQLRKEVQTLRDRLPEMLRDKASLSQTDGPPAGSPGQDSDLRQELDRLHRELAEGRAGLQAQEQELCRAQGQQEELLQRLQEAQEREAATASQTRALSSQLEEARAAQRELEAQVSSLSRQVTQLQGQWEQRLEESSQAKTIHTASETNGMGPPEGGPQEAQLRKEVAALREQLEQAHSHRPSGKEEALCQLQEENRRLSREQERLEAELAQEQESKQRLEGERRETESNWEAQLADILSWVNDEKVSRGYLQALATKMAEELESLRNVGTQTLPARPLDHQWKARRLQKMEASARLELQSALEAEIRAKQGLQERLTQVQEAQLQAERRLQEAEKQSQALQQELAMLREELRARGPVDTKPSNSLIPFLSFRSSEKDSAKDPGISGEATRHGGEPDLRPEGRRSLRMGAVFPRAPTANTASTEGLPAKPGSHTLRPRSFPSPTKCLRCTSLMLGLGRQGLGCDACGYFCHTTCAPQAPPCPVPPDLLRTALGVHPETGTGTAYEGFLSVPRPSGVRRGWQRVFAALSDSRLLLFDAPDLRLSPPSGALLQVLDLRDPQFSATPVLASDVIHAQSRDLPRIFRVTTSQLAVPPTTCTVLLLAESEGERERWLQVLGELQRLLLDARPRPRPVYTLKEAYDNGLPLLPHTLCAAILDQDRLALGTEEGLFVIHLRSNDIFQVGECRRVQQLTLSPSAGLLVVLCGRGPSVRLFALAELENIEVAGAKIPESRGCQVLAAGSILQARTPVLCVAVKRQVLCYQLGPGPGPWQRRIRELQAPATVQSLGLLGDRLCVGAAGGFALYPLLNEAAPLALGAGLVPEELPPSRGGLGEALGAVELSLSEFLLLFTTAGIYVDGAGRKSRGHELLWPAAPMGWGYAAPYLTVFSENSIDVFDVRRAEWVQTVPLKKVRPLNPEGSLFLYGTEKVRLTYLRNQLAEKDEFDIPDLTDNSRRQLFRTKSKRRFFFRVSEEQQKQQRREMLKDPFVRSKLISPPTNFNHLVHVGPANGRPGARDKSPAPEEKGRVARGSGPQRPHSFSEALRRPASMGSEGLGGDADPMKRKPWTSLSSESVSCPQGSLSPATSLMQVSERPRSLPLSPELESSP

[17] = biological target: Rho-associated protein kinase 2 (Homo sapiens) (UniProt O75116); settings: Compound concentration 1000.0 nM
[18] = biological target: Protein-tyrosine kinase 6 (Homo sapiens) (UniProt Q13882); settings: Compound concentration 1000.0 nM
[19] = test system: Mast/stem cell growth factor receptor Kit (Homo sapiens), P10721 [V559D]; settings: Compound concentration 1000.0 nM
Mast/stem cell growth factor receptor Kit (Homo sapiens), P10721 [V559D], sequence (P10721 whole entry V559D): as the sequence (P10721 whole entry, canonical isoform) above, with V559D counted along it

[20] = biological target: Somatostatin receptor type 4 (Homo sapiens) (UniProt P31391); experiment: sst4 (h) Eurofins-Cerep Cellular and Nuclear Receptor Functional Assays; settings: Compound concentration 10.0 uM
Somatostatin receptor type 4 (Homo sapiens), sequence (P31391 whole entry): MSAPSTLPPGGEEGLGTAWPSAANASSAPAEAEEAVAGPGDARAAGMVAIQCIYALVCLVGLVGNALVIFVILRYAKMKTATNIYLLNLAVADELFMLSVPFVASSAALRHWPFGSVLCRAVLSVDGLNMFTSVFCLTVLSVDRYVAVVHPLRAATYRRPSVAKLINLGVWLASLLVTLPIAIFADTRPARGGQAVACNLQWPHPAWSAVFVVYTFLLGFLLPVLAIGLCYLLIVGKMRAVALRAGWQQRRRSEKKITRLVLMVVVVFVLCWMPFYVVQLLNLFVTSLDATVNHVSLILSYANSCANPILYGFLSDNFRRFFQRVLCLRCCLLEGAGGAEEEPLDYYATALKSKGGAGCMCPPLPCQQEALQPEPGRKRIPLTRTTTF

[21] = biological target: T2, Proteinase-activated receptor 1 (Homo sapiens, UniProt P25116); experiment: Functional cellular assay (HEK cells) (F2R)
T2 sequence (P25116 whole entry): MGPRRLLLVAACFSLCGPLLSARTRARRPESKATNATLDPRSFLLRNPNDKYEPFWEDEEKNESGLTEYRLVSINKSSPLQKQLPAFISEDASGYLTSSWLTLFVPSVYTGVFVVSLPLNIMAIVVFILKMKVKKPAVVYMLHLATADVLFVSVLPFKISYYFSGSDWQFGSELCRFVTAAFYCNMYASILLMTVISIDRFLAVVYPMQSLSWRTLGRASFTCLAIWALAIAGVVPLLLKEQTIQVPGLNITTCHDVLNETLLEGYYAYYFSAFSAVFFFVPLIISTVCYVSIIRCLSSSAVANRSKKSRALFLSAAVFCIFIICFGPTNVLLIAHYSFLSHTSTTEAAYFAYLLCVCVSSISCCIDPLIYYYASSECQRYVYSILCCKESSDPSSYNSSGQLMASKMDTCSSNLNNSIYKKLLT

[22] = biological target: Interleukin-1 receptor-associated kinase 1 (Homo sapiens) (UniProt P51617); settings: Compound concentration 1000.0 nM
[23] = biological target: Beta-adrenergic receptor kinase 1 (Homo sapiens) (UniProt P25098); settings: Compound concentration 1000.0 nM
[24] = test system: Epidermal growth factor receptor (Homo sapiens), P00533 [L858R,T790M]; settings: Compound concentration 1000.0 nM
[25] = biological target: 3-phosphoinositide-dependent protein kinase 1 (Homo sapiens) (UniProt O15530); settings: Compound concentration 1000.0 nM
3-phosphoinositide-dependent protein kinase 1 (Homo sapiens), sequence (O15530 whole entry): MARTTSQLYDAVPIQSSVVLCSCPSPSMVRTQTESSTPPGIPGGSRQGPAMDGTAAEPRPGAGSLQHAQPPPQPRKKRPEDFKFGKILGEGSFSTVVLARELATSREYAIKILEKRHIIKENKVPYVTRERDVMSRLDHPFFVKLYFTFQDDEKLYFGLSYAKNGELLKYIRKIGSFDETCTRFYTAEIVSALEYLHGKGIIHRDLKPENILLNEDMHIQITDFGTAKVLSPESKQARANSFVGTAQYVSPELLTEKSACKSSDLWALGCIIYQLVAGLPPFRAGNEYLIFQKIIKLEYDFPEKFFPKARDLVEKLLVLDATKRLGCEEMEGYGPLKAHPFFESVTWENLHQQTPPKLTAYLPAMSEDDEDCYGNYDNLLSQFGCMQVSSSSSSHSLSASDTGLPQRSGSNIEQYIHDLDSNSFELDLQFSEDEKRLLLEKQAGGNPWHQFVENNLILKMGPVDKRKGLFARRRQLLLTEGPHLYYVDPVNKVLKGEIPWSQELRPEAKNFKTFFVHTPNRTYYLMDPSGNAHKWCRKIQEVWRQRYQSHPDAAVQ

[26] = biological target: Serine/threonine-protein kinase PRP4 homolog (Homo sapiens) (UniProt Q13523); settings: Compound concentration 1000.0 nM
[27] = biological target: Protein kinase C epsilon type (Homo sapiens) (UniProt Q02156); settings: Compound concentration 1000.0 nM
[28] = test system: Tyrosine-protein kinase ABL1 (Homo sapiens), P00519 [F317L]; settings: Compound concentration 1000.0 nM
[29] = biological target: MAP/microtubule affinity-regulating kinase 4 (Homo sapiens) (UniProt Q96L34); settings: Compound concentration 1000.0 nM
[30] = biological target: Mitogen-activated protein kinase 8 (Homo sapiens) (UniProt P45983); settings: Compound concentration 1000.0 nM
Mitogen-activated protein kinase 8 (Homo sapiens), sequence (P45983 whole entry): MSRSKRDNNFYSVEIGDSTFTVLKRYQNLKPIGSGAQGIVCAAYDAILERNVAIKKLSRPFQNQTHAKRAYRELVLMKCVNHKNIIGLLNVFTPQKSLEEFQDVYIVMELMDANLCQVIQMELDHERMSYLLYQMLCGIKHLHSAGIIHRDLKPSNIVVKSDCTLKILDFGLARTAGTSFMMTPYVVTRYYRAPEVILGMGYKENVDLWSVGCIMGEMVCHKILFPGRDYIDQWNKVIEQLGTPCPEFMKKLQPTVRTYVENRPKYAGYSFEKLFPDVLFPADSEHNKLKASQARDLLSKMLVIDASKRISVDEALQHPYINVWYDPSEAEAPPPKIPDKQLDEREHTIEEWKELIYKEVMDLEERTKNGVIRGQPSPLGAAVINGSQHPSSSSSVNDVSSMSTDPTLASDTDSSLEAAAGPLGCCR

[31] = test system: Tyrosine-protein kinase ABL1 (Homo sapiens), P00519 [F317I]; settings: Compound concentration 1000.0 nM
[32] = biological target: Serine/threonine-protein kinase PAK 6 (Homo sapiens) (UniProt Q9NQU5); settings: Compound concentration 1000.0 nM
[33] = biological target: 5-hydroxytryptamine receptor 7 (Homo sapiens) (UniProt P34969); settings: Compound concentration 10.0 uM
5-hydroxytryptamine receptor 7 (Homo sapiens), sequence (P34969 whole entry): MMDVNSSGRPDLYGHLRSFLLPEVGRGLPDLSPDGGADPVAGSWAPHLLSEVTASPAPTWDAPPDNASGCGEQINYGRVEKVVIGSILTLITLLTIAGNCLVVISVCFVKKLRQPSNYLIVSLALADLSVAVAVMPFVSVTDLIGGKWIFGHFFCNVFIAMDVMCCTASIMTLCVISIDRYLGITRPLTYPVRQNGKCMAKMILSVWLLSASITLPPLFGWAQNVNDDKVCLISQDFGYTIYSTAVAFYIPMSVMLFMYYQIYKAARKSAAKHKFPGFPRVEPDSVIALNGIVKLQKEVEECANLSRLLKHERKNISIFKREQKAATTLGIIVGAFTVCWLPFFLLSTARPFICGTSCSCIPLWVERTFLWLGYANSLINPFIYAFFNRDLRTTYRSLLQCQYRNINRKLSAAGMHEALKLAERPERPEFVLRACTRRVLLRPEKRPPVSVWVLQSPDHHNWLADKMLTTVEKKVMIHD

RAC-beta serine/threonine-protein kinase (Homo sapiens), sequence (P31751 whole entry): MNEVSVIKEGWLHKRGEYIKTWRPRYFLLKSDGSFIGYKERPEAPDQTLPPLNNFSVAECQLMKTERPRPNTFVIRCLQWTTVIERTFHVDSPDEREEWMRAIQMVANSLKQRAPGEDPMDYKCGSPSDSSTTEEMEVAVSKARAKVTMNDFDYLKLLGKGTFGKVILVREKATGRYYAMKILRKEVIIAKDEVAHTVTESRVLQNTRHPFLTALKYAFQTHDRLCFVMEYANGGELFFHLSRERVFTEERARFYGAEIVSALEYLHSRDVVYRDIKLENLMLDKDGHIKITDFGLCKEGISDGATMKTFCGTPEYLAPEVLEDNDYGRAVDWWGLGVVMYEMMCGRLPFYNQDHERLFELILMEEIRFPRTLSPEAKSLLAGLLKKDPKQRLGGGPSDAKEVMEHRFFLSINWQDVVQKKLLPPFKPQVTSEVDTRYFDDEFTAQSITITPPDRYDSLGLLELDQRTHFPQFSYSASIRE

| Structure (SMILES) | residual activity [1] [%] | residual activity [2] [%] | residual activity [3] [%] | residual activity [4] [%] | residual activity [5] [%] | residual activity [6] [%] | residual activity [7] [%] | residual activity [8] [%] | residual activity [9] [%] | residual activity [10] [%] | residual activity [11] [%] | residual activity [12] [%] | inhibition [13] [%] | residual activity [14] [%] | inhibition [15] [%] | residual activity [16] [%] | residual activity [17] [%] | residual activity [18] [%] | residual activity [19] [%] | % Inhibition of Control Agonist Response (Mean n=2) [20] [%] | further results |
| --- | --- | --- | --- | --- | --- | --- | --- | --- | --- | --- | --- | --- | --- | --- | --- | --- | --- | --- | --- | --- | --- |
| O=C(N1CCS(=O)(=O)CC1)N1C[C@H](c2ccc(OC(F)(F)F)cc2)C[C@H](c2nc(C3CC3)no2)C1 [BAY-386] | 100 | 90 | 100 | 100 | 100 | 100 | 93 | 92 | 100 | 92 | 100 | 100 | 4.1 | 100 | -0.34 | 100 | 98 | 100 | 100 | -3.3 | % of Control Agonist Response (Mean n=2) [20]: -13%; IC50 [21]: 0.01 µM (active); residual activity [22]: 92%; residual activity [23]: 66%; residual activity [24]: 59%; residual activity [25]: 94%; residual activity [26]: 97%; residual activity [27]: 97%; residual activity [28]: 89%; residual activity [29]: 100%; residual activity [30]: 82%; residual activity [31]: 80%; residual activity [32]: 100%; inhibition [33]: -0.77% |
| Cc1noc([C@H]2C[C@@H](c3ccc(C(F)(F)F)cc3)CN(C(=O)N3CCS(=O)(=O)C3)C2)n1 [BAY-448] | 100 | 96 | 100 | 100 | 84 | 100 | 76 | 100 | 96 | 100 | 100 | 98 | -1.71 | 100 | 6.96 | 100 | 100 | 100 | 100 | 1.2 | % of Control Agonist Response (Mean n=2) [20]: -2%; IC50 [21]: > 10 µM (not active); residual activity [22]: 100%; residual activity [23]: 83%; residual activity [24]: 96%; residual activity [25]: 95%; residual activity [26]: 72%; residual activity [27]: 100%; residual activity [28]: 100%; residual activity [29]: 84%; residual activity [30]: 77%; residual activity [31]: 100%; residual activity [32]: 100%; inhibition [33]: 21.8% |

Reference: ChEMBL document CHEMBL4507269, “Data for DCP probe BAY-386” (2021)
